Results published in ChEMBL document CHEMBL1201862, “PubChem BioAssay data set” (2004).
Activity calls are given as the source filed them.

Key:
[1] = NIH-3T3 fibroblast cytotoxicity, dose response, cytotoxicity control, cell-based, fluorescence, Alamar Blue, secondary assay (AID 2327); assay type: functional;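 note: NIH-3T3 mouse fibroblasts cultured with fluconazole at 8 µg/mL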
[2] = C. albicans growth with fluconazole, confirmation, fluorescence, retest (AID 2467); assay type: functional, cell-based
Fatty acid synthase [3] = molecular target: T1, Fatty acid synthase (Homo sapiens, UniProt P49327); experiment: FAS thioesterase domain inhibitors, dose response, biochemical, kinetic fluorescence intensity (AID 624326); assay type: functional;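 note: rate of fluorescence rise from hydrolysis of a fluorogenic O-methyl fluorescein ester substrate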
[4] = Luminescence Cell-Based Dose Retest to Confirm Inhibitors of Cancer Stem Cells. [Related pubchem assays (depositor defined):AID2717, AID2721]; assay type: functional; conditions: Homo sapiens
[5] = molecular target: T2, Polyadenylate-binding protein 1 (Homo sapiens, UniProt P11940); experiment: PABP1 MLLE–PAM2 interaction inhibitors, dose response, miRNA deadenylation inhibitor project, biochemical, fluorescence polarization, Cy5-PAM2 peptide, secondary (AID 602260); assay type: functional; conditions: read-out: IC50_Mean
[6] = molecular target: T2, Polyadenylate-binding protein 1; experiment: PABP1 MLLE–PAM2 binding inhibitor potency, dose response, biochemical, fluorescence polarization, FITC-PAM2 peptide (AID 602259); assay type: functional; conditions: read-out: IC50_Mean
[7] = molecular target: T3, Replicative DNA helicase DnaB (Mycobacterium tuberculosis, UniProt P9WMR3); experiment: DnaB intein splicing inhibitors, dose response, biochemical, cell-free fluorescence (AID 449749); assay type: functional
T3 sequence (P9WMR3 whole entry): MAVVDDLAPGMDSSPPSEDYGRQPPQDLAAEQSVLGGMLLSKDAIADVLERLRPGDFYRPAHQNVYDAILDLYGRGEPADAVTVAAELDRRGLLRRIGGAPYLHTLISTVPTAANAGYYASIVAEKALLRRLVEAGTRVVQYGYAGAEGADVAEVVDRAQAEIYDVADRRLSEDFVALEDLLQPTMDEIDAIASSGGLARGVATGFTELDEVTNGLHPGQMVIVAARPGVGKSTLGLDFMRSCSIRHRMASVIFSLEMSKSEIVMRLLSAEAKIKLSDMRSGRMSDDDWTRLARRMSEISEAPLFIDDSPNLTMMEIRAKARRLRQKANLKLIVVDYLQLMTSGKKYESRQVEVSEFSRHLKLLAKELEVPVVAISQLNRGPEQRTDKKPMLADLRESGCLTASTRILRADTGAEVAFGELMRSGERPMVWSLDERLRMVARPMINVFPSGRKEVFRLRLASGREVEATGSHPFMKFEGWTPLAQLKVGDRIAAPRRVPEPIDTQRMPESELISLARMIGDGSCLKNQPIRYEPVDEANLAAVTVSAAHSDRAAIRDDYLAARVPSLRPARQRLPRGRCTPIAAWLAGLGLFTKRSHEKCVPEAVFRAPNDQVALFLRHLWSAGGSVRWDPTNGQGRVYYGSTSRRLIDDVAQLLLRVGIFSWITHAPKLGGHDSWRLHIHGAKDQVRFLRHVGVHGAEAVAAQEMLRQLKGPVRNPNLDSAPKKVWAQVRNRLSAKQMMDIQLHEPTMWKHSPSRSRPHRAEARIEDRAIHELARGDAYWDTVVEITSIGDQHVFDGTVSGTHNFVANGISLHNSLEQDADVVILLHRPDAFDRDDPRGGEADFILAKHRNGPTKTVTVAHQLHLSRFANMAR

Protein RecA = molecular target: T4, Protein RecA (Mycobacterium tuberculosis, UniProt P9WHJ3); experiment: Fluorescence Cell-Free Homogeneous Dose Retest to Identify Inhibitors of RecA-Intein Splicing Activity. [Related pubchem assays (depositor defined):AID2097, AID2223, AID489010, AID492950]; assay type: functional
T4 sequence (P9WHJ3 whole entry): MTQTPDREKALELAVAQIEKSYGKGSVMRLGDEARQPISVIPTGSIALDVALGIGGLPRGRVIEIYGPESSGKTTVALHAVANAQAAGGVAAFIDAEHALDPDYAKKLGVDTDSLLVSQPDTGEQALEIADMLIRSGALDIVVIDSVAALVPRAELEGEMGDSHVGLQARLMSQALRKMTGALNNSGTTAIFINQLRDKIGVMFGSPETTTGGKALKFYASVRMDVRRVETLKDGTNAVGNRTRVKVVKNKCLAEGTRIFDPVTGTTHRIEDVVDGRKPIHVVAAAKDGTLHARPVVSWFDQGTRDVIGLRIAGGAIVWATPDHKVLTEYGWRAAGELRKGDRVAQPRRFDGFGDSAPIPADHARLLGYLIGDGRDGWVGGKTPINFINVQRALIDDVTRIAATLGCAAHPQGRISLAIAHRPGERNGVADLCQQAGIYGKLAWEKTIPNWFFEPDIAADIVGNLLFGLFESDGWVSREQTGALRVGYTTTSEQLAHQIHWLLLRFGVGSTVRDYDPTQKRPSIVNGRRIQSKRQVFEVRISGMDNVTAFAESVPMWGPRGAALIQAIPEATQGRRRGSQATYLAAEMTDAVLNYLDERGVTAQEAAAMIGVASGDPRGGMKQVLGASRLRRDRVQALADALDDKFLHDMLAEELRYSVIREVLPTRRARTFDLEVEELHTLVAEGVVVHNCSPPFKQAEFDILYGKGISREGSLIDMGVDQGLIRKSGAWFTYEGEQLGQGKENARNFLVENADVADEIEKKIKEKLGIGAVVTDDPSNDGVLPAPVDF

[8] = molecular target: FAD-linked sulfhydryl oxidase ALR (Homo sapiens, UniProt P55789); experiment: inhibitors of human ALR sulfhydryl oxidase, dose response, biochemical, H2O2 detection, luminescence, cherry-pick (AID 493248)
Fatty acid synthase [9] = molecular target: T1, Fatty acid synthase; experiment: FAS thioesterase domain inhibitors, dose response, biochemical, endpoint fluorescence intensity, uHTS hits (AID 624327); assay type: functional;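 note: fluorescence from hydrolysis of an O-methyl fluorescein acyl ester substrate by the enzyme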
[10] = molecular target: T5, Corticotropin-releasing factor receptor 2/Corticotropin-releasing factor-binding protein (Homo sapiens, UniProt P24387+Q13324); experiment: activators of CRF receptor 2 with binding protein – uHTS hits, confirmation (AID 602473); assay type: functional; conditions: read-out: EC50_Mean
T5 sequence (Q13324 whole entry): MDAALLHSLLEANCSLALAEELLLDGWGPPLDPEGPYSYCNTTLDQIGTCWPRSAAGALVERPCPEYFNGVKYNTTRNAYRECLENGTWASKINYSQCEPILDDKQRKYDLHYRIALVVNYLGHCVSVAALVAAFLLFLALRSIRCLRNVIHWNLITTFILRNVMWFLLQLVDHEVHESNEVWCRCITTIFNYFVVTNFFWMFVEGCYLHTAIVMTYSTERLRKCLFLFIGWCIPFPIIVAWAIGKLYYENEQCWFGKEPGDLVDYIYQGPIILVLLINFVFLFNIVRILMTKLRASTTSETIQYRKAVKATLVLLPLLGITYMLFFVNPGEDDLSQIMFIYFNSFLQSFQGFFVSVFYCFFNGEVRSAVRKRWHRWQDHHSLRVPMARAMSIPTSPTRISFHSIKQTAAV
T5 sequence (P24387 whole entry): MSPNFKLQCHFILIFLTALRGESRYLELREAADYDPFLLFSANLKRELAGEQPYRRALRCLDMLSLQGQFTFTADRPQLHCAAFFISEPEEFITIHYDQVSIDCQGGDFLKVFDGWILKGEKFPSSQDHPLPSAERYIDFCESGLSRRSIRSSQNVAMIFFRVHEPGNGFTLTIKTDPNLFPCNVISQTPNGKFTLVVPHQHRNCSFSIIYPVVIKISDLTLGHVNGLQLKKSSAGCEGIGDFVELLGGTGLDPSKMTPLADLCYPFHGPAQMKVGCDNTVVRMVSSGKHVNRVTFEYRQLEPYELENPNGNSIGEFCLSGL

T2 sequence (P11940 whole entry): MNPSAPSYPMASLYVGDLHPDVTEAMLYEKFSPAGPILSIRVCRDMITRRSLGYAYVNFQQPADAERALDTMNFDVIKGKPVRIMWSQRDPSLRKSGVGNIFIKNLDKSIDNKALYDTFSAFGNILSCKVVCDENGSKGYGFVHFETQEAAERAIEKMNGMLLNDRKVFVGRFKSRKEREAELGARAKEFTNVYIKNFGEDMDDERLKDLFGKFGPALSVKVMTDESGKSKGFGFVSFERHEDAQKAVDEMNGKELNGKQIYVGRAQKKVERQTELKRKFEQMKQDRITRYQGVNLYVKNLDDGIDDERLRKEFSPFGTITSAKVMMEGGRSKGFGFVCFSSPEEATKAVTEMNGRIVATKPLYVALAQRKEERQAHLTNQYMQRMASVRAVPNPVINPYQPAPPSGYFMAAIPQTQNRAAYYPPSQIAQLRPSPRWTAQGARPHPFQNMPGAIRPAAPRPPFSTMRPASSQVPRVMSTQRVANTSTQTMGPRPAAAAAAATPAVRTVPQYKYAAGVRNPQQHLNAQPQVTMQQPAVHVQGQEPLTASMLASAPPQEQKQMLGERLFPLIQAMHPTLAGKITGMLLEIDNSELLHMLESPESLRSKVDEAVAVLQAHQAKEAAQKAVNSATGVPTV
T1 sequence (P49327 whole entry, the tested form may be a part): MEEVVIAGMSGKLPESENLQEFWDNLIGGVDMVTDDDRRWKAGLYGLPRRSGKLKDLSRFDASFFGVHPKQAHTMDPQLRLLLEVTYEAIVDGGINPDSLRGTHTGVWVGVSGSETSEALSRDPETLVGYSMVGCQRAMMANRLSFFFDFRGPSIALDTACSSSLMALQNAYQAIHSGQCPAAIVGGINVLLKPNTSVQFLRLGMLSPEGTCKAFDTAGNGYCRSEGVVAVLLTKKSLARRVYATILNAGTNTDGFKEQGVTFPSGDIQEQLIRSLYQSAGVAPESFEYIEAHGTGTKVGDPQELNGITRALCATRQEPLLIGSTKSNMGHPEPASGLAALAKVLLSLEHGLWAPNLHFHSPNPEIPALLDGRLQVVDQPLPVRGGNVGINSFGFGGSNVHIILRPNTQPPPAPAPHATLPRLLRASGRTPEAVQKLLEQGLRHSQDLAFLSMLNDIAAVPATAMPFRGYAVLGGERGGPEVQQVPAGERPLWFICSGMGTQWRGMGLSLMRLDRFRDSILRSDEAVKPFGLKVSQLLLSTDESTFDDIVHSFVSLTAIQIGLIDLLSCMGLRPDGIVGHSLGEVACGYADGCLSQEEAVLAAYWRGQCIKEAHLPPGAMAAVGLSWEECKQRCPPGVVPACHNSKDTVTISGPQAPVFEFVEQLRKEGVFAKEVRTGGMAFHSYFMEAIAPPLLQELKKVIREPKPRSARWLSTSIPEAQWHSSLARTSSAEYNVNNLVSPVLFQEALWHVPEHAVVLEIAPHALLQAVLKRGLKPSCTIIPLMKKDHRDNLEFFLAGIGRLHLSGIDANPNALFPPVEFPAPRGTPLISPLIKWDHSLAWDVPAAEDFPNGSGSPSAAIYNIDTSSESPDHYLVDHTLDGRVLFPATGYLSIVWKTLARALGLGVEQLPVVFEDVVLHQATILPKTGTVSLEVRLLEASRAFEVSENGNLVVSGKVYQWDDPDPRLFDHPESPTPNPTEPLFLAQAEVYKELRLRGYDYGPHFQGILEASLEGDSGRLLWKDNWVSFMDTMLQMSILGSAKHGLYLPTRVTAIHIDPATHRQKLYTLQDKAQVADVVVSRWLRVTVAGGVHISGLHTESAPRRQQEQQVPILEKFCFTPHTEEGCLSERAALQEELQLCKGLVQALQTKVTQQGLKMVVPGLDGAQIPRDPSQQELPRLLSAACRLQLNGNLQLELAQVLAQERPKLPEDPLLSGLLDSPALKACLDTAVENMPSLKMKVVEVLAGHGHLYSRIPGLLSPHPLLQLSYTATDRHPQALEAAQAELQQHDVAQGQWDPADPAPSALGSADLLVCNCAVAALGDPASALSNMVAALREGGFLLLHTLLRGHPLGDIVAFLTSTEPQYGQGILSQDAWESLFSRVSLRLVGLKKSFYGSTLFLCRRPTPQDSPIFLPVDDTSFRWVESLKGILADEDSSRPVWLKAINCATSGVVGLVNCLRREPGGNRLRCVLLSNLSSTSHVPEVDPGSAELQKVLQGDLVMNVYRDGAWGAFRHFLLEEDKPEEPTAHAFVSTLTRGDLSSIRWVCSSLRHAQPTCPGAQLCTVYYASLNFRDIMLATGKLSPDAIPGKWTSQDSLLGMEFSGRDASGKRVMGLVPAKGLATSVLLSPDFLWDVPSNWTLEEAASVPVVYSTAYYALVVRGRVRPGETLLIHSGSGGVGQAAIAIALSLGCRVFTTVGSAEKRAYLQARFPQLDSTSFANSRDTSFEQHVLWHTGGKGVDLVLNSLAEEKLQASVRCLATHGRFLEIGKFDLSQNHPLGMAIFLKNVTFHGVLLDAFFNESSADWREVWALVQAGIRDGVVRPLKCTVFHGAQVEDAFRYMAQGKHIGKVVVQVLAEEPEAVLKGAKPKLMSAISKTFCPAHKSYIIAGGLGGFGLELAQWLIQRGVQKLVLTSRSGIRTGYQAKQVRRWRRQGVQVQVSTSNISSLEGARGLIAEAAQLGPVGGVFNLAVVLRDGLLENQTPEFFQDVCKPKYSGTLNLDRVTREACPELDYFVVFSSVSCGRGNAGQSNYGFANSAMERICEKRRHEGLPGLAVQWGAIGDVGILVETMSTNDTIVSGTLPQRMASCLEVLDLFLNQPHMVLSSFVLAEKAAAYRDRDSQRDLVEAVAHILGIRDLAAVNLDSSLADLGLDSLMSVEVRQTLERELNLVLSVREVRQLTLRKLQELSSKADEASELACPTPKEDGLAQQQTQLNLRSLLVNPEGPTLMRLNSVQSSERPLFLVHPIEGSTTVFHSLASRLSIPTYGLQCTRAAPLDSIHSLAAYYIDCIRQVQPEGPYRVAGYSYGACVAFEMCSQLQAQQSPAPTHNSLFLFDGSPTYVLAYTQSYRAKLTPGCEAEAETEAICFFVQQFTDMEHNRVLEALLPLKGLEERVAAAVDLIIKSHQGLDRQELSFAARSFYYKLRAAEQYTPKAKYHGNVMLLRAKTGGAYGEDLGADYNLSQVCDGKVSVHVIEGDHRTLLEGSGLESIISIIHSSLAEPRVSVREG
Sequence of FAD-linked sulfhydryl oxidase ALR (P55789 whole entry, the tested form may be a part): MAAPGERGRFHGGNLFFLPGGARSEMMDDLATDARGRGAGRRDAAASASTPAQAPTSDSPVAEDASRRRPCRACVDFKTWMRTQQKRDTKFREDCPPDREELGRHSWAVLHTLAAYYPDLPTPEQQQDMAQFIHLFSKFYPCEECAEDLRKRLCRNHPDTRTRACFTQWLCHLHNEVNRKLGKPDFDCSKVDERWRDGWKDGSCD

Structure (SMILES)	EC50 [1]	EC50 [2]	IC50 [5]	IC50 [6]	other results
CC(NC(=O)OCc1ccccc1)C(=O)Oc1cc2oc(=O)cc(-c3ccccc3)c2cc1Cl (stereo unspecified)	> 150 µM (inactive)	1.09 µM (active)	–	–	–
O=C(NCCc1ccccc1)c1c(O)c2cccc3c2n(c1=O)CC3	> 150 µM (inactive)	> 38 µM (not active)	–	–	–
O=C(c1ccc(Cl)c([N+](=O)[O-])c1)N1CCN(c2ccccc2)CC1	–	–	–	–	IC50 (Fatty acid synthase [3]): 11.9 µM (active)
O=C(O)CCN1C(=O)C(=C2CCCCCC2)SC1=S	–	–	> 66 µM (inactive)	> 66 µM (inactive)	AC50 [4]: 40.8 µM (active)
CCc1c(O)nc(SCC(=O)N2CCc3cc(OC)c(OC)cc3[C@@H]2C)nc1O	–	–	> 66 µM (inactive)	> 66 µM (inactive)	–
COc1cc(/C=C2/C(=O)N(c3ccc(C)c(C)c3)N=C2C)cc([N+](=O)[O-])c1O	–	–	–	–	AC50 [7]: 11.3 µM (active); EC50 (Protein RecA): 8.54 µM (active)
C=C(C)CSc1nc(O)cc(C)c1C#N	> 150 µM (inactive)	1.86 µM (active)	–	–	–
CCOC(=O)Cc1csc(NC(=O)CSc2nc(O)c3c(C)c(C(=O)O)sc3n2)n1	104 µM (active)	5.45 µM (active)	–	–	–
O=C(Cn1nnc(-c2cc(C(F)(F)F)cc(C(F)(F)F)c2)n1)NN=C(S)Nc1ccc(Cl)cc1	–	–	> 66 µM (inactive)	> 66 µM (inactive)	–
CS(=O)(=O)c1ccc2nc(NC3(C(F)(F)F)N=C4SCCN4C3=O)sc2c1 (stereo unspecified)	–	–	> 66 µM (inactive)	> 66 µM (inactive)	–
Cc1ccc(Sc2ncnc3onc(C)c23)cc1	–	–	–	–	AC50 [8]: 9.91 µM (active); AC50 [7]: 14.9 µM (active); EC50 (Protein RecA): 6.8 µM (active)
CN(C)S(=O)(=O)c1ccc2c(c1)C(=O)c1cc(S(=O)(=O)N(C)C)ccc1CC2	–	–	–	–	IC50 (Fatty acid synthase [9]): 176 nM (active); IC50 (Fatty acid synthase [3]): 0.166 µM (active)
O=C1NC[C@@H](c2ccccc2)OC(=O)[C@H](Cc2ccc(F)cc2)CC/C=C/C[C@H]1CC(=O)N(CCO)Cc1ccccc1	–	–	–	–	EC50 [10]: > 53 µM (inactive)
